# Laboratory results taken from the SangsterLogP compilation.
# Test: method code SF-AS, from DOI: 10.1248/cpb.24.61
# Settings: pH 7.4
row,SMILES,logD
1,Cc1c(NC(C)C(=O)N(C)C)c(=O)n(-c2ccccc2)n1C (configuration not stated),0.35
2,Cc1c(C(=O)C(C)N(C)C)c(=O)n(-c2ccccc2)n1C (configuration not stated),-0.78
3,Cc1c(N(C)C(C)C(=O)N(C)C)c(=O)n(-c2ccccc2)n1C (configuration not stated),0.69
4,Cc1c(NC(N)=O)c(=O)n(-c2ccccc2)n1C,-0.92
5,Cc1c(C(=O)CN(C)C)c(=O)n(-c2ccccc2)n1C,-0.95
6,CCC(C(=O)c1c(C)n(C)n(-c2ccccc2)c1=O)N(C)C (configuration not stated),-0.24
7,Cc1c(NC(=O)CN(C)C)c(=O)n(-c2ccccc2)n1C,-0.37
